Data reported in ChEMBL document CHEMBL1201862, “PubChem BioAssay data set” (2004).
Activity calls are given as the source filed them.

Experiments:
[1] = biological target: T1, Apoptotic protease-activating factor 1 (Homo sapiens, UniProt O14727); format: functional
T1 sequence (O14727 whole entry): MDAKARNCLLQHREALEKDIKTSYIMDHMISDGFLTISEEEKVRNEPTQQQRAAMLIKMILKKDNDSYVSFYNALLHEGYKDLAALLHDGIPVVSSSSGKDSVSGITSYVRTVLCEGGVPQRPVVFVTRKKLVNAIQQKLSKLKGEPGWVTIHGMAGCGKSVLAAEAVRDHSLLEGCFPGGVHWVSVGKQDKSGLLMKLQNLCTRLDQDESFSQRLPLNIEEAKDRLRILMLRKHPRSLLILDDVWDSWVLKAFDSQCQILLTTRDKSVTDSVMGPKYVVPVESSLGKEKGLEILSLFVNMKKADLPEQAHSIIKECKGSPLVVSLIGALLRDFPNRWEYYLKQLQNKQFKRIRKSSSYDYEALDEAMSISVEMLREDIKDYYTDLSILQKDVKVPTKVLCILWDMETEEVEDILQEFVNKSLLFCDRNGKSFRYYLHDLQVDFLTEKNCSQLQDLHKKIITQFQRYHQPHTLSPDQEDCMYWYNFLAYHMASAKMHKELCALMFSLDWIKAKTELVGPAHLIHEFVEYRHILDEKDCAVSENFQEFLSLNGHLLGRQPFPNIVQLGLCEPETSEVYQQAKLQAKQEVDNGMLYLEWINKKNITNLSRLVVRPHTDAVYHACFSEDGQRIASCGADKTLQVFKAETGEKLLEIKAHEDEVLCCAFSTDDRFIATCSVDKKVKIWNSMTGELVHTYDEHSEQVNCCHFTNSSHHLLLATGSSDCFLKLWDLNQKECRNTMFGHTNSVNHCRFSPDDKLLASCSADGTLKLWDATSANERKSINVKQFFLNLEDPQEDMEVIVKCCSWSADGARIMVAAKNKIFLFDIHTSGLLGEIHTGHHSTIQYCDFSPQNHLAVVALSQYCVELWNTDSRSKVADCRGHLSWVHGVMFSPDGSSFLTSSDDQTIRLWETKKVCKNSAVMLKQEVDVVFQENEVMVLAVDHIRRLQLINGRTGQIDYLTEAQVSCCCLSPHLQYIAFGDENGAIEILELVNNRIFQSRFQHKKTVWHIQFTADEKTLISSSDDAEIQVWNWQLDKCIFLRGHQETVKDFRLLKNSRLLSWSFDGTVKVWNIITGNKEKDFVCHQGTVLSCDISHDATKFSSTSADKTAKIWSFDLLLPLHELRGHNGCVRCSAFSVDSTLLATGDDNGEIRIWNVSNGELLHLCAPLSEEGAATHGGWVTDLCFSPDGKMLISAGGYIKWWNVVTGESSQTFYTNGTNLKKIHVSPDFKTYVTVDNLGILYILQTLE

[2] = Luminescence Cell-Based Dose Retest to Confirm Inhibitors of Cancer Stem Cells. [Related pubchem assays (depositor defined):AID2717, AID2721]; format: functional; details: Homo sapiens
[3] = biological target: T2, Sentrin-specific protease 8 (Homo sapiens, UniProt Q96LD8); format: functional;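 further: luminescence read-out of SENP8 inhibition, dose-response confirmation following an ultra-high-throughput screen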
T2 sequence (Q96LD8 whole entry): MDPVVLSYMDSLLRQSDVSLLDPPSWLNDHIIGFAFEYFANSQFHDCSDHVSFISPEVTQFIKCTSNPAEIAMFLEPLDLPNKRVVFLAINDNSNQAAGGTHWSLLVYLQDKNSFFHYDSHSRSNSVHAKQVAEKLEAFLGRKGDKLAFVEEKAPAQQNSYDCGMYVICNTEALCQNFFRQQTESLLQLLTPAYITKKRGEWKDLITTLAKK

[4] = biological target: T3, Sentrin-specific protease 6 (Homo sapiens, UniProt Q9GZR1); format: functional;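 further: Luminescence-based dose-response confirmatory assay of SENP6 inhibition, following up an ultra-high-throughput screen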
T3 sequence (Q9GZR1 whole entry): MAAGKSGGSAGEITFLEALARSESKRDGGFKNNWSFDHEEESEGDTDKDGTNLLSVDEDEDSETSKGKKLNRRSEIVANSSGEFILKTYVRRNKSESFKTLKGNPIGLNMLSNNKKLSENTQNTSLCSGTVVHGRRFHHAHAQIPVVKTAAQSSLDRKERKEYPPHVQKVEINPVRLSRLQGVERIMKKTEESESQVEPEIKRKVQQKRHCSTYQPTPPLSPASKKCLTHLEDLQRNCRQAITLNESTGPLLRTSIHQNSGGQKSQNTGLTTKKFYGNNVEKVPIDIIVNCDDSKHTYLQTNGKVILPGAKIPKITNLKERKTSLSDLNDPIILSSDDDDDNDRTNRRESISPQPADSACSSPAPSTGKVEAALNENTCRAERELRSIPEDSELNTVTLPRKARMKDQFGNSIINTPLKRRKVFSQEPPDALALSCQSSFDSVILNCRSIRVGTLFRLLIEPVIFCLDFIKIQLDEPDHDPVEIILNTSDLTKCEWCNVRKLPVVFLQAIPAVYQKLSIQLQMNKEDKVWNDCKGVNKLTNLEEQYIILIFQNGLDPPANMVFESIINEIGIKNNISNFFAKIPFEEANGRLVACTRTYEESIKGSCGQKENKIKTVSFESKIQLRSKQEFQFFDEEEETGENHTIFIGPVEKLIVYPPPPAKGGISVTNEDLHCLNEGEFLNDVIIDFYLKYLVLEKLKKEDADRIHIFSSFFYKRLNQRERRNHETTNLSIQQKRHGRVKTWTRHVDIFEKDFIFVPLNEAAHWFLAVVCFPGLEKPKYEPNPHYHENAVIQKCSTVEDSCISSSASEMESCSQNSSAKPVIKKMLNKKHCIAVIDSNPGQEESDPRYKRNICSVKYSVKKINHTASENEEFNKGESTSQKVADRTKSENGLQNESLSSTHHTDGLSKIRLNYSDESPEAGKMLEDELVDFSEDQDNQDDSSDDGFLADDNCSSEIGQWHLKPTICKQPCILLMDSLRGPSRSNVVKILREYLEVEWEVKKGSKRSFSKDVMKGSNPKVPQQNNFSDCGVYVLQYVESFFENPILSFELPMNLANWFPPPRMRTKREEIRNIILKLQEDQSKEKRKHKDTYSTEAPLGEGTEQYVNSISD

[5] = biological target: T4, Sentrin-specific protease 7 (Homo sapiens, UniProt Q9BQF6); format: functional;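 further: Luminescence-based dose-response confirmation of ultra-high-throughput screening hits, measuring inhibition of SENP7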
T4 sequence (Q9BQF6 whole entry): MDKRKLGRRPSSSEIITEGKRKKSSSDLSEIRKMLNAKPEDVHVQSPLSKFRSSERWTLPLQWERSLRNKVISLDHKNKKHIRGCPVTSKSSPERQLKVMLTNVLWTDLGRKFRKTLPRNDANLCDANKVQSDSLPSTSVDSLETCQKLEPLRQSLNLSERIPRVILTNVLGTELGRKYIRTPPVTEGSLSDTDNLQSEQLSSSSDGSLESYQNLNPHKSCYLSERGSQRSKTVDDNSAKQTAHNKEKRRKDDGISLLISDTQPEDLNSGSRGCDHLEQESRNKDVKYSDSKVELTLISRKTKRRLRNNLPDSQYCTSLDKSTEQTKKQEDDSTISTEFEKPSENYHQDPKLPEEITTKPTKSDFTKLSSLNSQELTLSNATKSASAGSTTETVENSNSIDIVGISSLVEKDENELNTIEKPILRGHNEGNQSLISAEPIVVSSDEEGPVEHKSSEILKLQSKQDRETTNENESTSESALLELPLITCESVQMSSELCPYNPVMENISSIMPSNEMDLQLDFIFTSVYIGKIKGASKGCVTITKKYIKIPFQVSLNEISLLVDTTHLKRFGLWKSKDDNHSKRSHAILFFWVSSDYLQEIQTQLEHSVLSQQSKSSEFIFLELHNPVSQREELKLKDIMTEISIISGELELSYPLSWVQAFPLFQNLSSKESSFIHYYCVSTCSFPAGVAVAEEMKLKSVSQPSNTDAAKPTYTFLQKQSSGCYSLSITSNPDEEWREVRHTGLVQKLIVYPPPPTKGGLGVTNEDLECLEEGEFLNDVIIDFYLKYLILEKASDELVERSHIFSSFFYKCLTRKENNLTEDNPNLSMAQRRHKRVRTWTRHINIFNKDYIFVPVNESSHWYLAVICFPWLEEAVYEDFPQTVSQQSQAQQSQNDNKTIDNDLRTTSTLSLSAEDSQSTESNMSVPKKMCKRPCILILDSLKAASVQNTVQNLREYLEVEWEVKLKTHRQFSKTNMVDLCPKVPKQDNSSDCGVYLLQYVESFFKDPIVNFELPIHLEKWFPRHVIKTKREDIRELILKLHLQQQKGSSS

[6] = biological target: T5, Long-chain-fatty-acid--AMP ligase FadD28 (Mycobacterium tuberculosis, UniProt P9WQ59); assay: Fluorescence polarization aasay to screen for inhibitors that compete for the binding of FadD28 to a bisubstrate Measured in Biochemical System Using Plate Reader - 2147-01_Inhibitor_Dose_CherryPick_Activity.; format: functional, Mycobacterium tuberculosis H37Rv
T5 sequence (P9WQ59 whole entry): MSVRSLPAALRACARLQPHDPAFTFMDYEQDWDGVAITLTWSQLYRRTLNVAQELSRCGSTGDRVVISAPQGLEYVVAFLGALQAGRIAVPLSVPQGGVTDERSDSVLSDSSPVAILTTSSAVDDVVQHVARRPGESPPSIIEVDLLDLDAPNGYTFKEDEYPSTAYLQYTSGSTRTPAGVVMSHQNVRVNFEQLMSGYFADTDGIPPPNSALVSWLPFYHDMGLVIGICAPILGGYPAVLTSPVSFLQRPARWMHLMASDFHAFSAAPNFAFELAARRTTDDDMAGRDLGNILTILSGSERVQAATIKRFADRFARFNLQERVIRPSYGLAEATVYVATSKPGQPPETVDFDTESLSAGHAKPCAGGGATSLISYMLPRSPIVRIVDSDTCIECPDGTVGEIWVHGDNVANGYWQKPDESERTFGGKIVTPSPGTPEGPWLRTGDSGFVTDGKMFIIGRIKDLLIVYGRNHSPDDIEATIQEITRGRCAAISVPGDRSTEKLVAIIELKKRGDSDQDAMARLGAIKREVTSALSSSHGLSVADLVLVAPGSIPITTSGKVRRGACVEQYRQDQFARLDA

[7] = biological target: T6, Short transient receptor potential channel 4 (Mus musculus, UniProt Q9QUQ5); assay: calcium entry via TRPC4 opening agents – cell-based, HEK293 TRPC4/mu-opioid, Fluo-4 calcium, dose response (AID 434937); format: functional
T6 sequence (Q9QUQ5 whole entry): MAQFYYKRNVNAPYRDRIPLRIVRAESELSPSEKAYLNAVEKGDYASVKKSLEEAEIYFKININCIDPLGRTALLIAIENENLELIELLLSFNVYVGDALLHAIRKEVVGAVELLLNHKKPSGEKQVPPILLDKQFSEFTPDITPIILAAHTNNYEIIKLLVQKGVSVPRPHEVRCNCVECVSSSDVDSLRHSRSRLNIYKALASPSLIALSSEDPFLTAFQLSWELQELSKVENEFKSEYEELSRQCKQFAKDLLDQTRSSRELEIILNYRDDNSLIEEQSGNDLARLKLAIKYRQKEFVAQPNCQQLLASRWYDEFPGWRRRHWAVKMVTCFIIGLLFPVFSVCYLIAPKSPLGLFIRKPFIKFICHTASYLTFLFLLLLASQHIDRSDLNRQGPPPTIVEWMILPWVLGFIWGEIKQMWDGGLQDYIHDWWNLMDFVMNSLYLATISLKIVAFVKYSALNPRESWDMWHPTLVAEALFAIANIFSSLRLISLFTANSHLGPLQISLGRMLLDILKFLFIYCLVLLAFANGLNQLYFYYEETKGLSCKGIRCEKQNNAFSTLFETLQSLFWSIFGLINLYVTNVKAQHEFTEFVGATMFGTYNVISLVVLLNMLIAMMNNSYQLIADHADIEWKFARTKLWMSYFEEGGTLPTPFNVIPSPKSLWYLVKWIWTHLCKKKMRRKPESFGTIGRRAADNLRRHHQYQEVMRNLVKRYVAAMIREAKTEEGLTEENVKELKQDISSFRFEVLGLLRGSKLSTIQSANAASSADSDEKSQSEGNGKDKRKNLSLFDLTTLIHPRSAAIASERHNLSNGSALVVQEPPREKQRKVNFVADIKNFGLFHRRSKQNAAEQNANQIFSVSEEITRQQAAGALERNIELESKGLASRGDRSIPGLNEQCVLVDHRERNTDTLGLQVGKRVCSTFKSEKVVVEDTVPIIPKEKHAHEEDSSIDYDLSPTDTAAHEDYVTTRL

[8] = biological target: Ras and Rab interactor 1/Tyrosine-protein kinase ABL1 (Homo sapiens, UniProt P00519+Q13671); format: functional;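 further: biochemical TR-FRET dose-response test measuring inhibition of binding between Rin1 and Abl proteins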
Ras and Rab interactor 1/Tyrosine-protein kinase ABL1, sequence (P00519 whole entry): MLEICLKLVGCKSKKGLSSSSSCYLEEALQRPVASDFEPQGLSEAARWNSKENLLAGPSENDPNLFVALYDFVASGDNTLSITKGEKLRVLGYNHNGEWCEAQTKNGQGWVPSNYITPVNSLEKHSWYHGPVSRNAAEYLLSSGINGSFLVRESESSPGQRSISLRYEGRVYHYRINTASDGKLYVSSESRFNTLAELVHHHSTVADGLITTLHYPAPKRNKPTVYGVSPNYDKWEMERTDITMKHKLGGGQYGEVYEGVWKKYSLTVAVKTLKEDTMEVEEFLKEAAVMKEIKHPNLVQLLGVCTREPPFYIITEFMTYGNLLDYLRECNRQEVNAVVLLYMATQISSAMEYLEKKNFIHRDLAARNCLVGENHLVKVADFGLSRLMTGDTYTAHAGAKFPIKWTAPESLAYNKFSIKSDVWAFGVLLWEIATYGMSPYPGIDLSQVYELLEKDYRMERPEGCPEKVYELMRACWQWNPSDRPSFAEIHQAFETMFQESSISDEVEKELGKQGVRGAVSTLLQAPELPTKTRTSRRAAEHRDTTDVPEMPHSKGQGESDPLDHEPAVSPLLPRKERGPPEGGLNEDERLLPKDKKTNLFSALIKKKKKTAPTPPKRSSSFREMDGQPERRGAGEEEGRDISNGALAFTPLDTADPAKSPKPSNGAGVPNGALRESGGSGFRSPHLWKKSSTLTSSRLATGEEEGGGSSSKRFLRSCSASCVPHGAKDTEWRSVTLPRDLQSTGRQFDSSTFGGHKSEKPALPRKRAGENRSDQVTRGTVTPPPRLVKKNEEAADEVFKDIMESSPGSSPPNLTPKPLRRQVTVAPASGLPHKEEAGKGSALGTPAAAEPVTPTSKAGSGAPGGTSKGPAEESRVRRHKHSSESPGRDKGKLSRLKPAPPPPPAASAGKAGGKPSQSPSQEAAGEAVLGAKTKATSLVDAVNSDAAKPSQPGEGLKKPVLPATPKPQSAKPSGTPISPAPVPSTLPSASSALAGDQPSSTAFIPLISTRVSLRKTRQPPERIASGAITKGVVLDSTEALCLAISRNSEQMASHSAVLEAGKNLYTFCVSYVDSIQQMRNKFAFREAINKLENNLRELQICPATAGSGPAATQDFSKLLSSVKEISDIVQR
Ras and Rab interactor 1/Tyrosine-protein kinase ABL1, sequence (Q13671 whole entry): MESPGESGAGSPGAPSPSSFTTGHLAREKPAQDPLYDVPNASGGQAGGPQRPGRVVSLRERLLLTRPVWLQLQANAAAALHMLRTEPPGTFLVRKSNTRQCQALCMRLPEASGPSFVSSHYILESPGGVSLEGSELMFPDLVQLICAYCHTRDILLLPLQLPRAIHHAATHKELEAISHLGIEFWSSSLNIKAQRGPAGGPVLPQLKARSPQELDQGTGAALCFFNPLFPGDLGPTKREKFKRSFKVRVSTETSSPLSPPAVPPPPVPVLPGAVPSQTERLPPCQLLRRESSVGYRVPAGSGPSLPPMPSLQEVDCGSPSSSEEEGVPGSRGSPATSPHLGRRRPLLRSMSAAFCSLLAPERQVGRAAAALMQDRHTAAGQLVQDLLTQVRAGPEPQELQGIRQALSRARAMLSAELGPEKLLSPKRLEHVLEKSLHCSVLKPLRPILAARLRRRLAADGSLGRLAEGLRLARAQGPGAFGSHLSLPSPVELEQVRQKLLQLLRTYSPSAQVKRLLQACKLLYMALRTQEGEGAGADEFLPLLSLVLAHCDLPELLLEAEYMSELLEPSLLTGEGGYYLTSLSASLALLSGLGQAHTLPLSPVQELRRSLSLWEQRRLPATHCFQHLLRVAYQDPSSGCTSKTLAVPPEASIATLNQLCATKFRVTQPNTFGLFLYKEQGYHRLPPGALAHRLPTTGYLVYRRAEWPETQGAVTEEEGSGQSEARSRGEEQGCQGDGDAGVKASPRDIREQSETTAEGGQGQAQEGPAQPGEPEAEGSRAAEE

With `CC(C)(C)C(=O)[C@@H]1[C@@H]2C(=O)N(C3CCCCC3)C(=O)[C@@H]2[C@H]2c3ccccc3C=CN12` the IC50 [1] was 10.5 µM (active).

In the case of `COc1cc2ccccc2cc1C(=O)Nc1ccccc1Cl`, the AC50 [2] is reported as 4.58 µM (active), the IC50 [3] is reported as 17.2 µM (active) and the IC50 [4] is reported as 10.2 µM (active). The IC50 [5] was 8.41 µM (active).

With `C/C(=N\Nc1ccc(Cl)c(C(=O)O)c1)c1ccc(Br)s1` the AC50 [6] was > 100 µM (inactive).

In the case of `CC1CCN(CCCNS(=O)(=O)c2cc(Br)cc3c2N(C(=O)C2CC2)CC3)CC1`, the EC50 [7] is reported as 0.299 µM (active).

For `O=C(CCn1c2c(c3ccccc31)CCCC2)NNC(=O)c1ccc([N+](=O)[O-])cc1`, the IC50 [1] was 1.8 µM (active).

With `O=C(CC(=O)Nc1ccccc1[N+](=O)[O-])Nc1ccccc1[N+](=O)[O-]` the AC50 [6] was 32 µM (inactive).

In the case of `CCOC(=O)C1(CCc2ccccc2)CCN(Cc2ccc(OC)cc2)CC1`, the EC50 [7] is reported as 0.267 µM (active).

For `COc1ccc(CCC(=O)Nc2c(-c3ccc(N(C)C)cc3)n[nH]c2O)cc1`, the IC50 [8] was > 73.5 µM (inactive).

With `CN(C(=O)c1ccc(NC(=O)Cc2cccc(NC(=O)C3CCN(C(=O)C4CCCC4)CC3)c2)cc1)C1CC1` the IC50 [8] was 21.2 µM (inactive).

For `COc1cccc(NC(=O)Nc2ccc3c(c2)CCC3)c1`, the IC50 [3] was > 100 µM (inactive), the IC50 [4] was > 100 µM (inactive) and the IC50 [5] was 4.28 µM (active).

With `Cc1nc(N/N=C/c2ccc(O)cc2O)cc(N2CCOCC2)n1` the IC50 [8] was > 2.72 µM (active).

In the case of `Nc1nc(O)cc(NC2CCCC2)n1`, the IC50 [8] is reported as 12.4 µM (inactive).

For `CN(C)C(CNC(=O)Cc1cccc(C(F)(F)F)c1)c1ccco1` (centres undefined), the EC50 [7] was 0.335 µM (active).

With `CCCN(CC(=O)Nc1ccccc1C)C(=O)c1sc2ccccc2c1Cl` the IC50 [1] was > 100 µM (inactive).
